{
  "source": "patent EP4772186A1",
  "about": "“USE AND COMPOSITION OF POSTBIOTIC OF LACTOBACILLUS PARACASEI ET-22” (Inner Mongolia Yili Industrial Group Co., Ltd., priority 2023, dated 2025)",
  "key": {"[1]": {"system": "biofilm", "experiment": "confocal laser scanning microscopy (CLSM) of biofilm thickness", "assay_type": "cell-based, halitosis subjects (saliva)", "protocol": "(§1) Lysate group: A HA disc was placed in a 96-well plate. 10 µl of saliva was added to the 96-well plate, followed by separate addition of ET-22 viable bacteria (1.0×10^9 CFU/ml), ET-22 heat-inactivated bacterial cells (obtained by inactivating viable bacteria at 1.0×10^9 CFU/ml), and lysate (obtained by inactivating and filtering viable bacteria at 1.0×10^9 CFU/ml), each at 10 µl. Then, 80 µl of SHI medium was added. The 96-well plate was placed in an anaerobic box and cultured anaerobically at 37°C for 10 hours.\nas §1, with “NAD” for “Lysate”, “heat-inactivating” for “inactivating”, “NAD (100 µg/ml),” for “lysate (obtained by inactivating and filtering viable bacteria at 1.0×10^9 CFU/ml),”\n2-hydroxy-3-phenylpropionic acid group: A HA disc was placed in a 96-well plate. 10 µl of saliva was added to the 96-well plate, followed by separate addition of ET-22 viable bacteria (1.0×10^9 CFU/ml), ET-22 heat-inactivated bacterial cells (obtained by heat-inactivating viable bacteria at 1.0×10^9 CFU/ml), and 2-hydroxy-3-phenylpropionic acid (100 µg/ml), each at 10 µl. Then, 80 µl of SHI medium was added. […]"}, "[2]": {"system": "halitosis virulence factors, including cdl, fadA, mgl, and gtfb", "experiment": "RT-PCR of virulence factors in multi-species biofilm", "assay_type": "cell-based", "conditions": "compared with CK group, 2^-△△CT method", "protocol": "100 µl of saliva was added to a 24-well plate, then 100 µl of the corresponding concentration solution was added respectively to the experimental groups, and finally 800 µl of SHI medium was added. The plate was placed in an anaerobic box and cultured anaerobically at 37°C for 10 hours. Then, the supernatant was discarded, and the multi-species biofilm adhered to the well plate was obtained. After discarding the supernatant from the incubated biofilm, the biofilm adhered to the bottom of the well plate was re-suspended with sterile water by pipetting, transferred to a 1.5 ml centrifuge tube, and stored until gene sequencing was performed.\nThis example evaluated the effects of lysate, NAD, 2-hydroxy-3-phenylpropionic acid, polypeptide GP(Hyp)GAG, and peptidoglycan on halitosis virulence factors, including cdl, fadA, mgl, and gtfb. The gene cdl can regulate the expression of L-cysteine […], which can catalyze the degradation of protein substrate to produce VSC, thereby causing halitosis. Fusobacterium nucleatum secretes an amyloid-like adhesin (fadA) via the fap2-like autotransporter protein to enhance its virulence. […]\nAfter the sample RNA was reverse-transcribing into cDNA, RT-PCR reaction was performed to detect biofilm-related virulence factors. Experimental results were calculated using the 2^-△△CT method. […]"}},
  "data": [
    {"smiles": "O=C(O)C(O)Cc1ccccc1", "note": "(stereo not drawn) [2-hydroxy-3-phenylpropionic acid]", "values": [
      {"measurement": "biofilm thickness", "setting": "[1]; compared with CK group, HA disc, pure components 100 µg/ml, others from 1.0×10^9 CFU/ml, 37°C 10 hours", "value": "significantly reduce the biofilm thickness"},
      {"measurement": "intervention effect on biofilm thickness", "setting": "[1]; relative to ET-22 viable bacteria and ET-22 heat-inactivated bacteria", "value": "superior"},
      {"measurement": "expression of virulence factors (cdl, fadA, mgl, gtfb)", "setting": "[2]", "value": "significantly regulate"}
    ]}
  ]
}
